Experimental data as given in patent US20250009856A1, “METHODS FOR TREATING RESPIRATORY DISEASES” (MUCPharm Pty Ltd, priority 2021, published 2025).

How the values were obtained:
[1] = Particle size distribution of aerosols by laser diffraction, Pari LC Sprint nebulizer; format: physicochemical; conditions: mean
Procedure: The particle size distributions (PSD) of 5 formulations containing bromelain and acetylcysteine at different concentrations were determined. The formulations were aerosolized using a PARI TurboBOY SX compressor, combined with the Pari LC Sprint nebulizer (PARI GmbH, USA). The nebulizer was connected to a USP induction port (throat), and particle size was measured at flow rate of 15 L/min in Spraytec particle sizer (Malvern Instruments, Malvern, UK). Measurements were performed in triplicate. Results are expressed as D10, D50 and D90, indicating the particle diameter at 10, 50 and 90% in the cumulative distribution.
The formulations were prepared in saline (0.9% w/v) and kept at −20° C. prior to analysis. The formulations tested were: • 1. Control: Saline (sodium chloride 0.9% w/v) • 2. Low Concentration of Ac (8 mg/mL) • 3. High Concentration of Ac (60 mg/mL) • 4. Brom at 50 μg/mL • 5. Combination 1: Low Ac (8 mg/mL)+Brom (50 μg/mL) • 6. Combination 2: High Ac (60 mg/mL)+Brom (50 μg/mL)

[2] = Sputum flow speed after mixing with BromAc, DNase and combinations; conditions: agent without DNASE: BR(250 ug/ml), NAC(20 mg/ml) or both; 1 hour, 37 deg C; Cont(PBS) 0.0436
Procedure: (§1) Artificial sputa was prepared following methodology with ingredients as in earlier experiments. To 1.5 ml of artificial sputa in a vial was added 0.5 ml of reagent containing the required bromelain, NAC, DNase and their combinations. Control vials included 0.5 ml of PBS only. The mixture was vortex mixed and incubated in a shaker water bath at 37 deg C. At the end of 1 hour, the samples were retrieved, vortex mixed and equilibrated to ambient room temperature before measuring dynamic viscosity and pipette flow.
(§2) Dynamic viscosity was determined using the capillary tube method as in earlier experiments, whilst the pipette flow was evaluated using a 0.5 ml pipette inclined at 60 deg angle. The pipette flow was calculated as shown below.
Pipette flow (€)=0.45 ml sputa/time to empty (sec).

[3] = Bromelain and acetylcysteine in plasma (ELISA), rabbit tolerability study; conditions: 4, 6, 24 and 48 h post-inhalation of 0.1 or 0.25 mg bromelain alone or in combination with acetylcysteine
[4] = Dynamic viscosity after mixing with BromAc, DNase and combinations; conditions: agent without DNASE: BR(25 ug/ml), NAC(20 mg/ml), or BR(250 ug/ml) + NAC(20 ug/ml); 1 hour, 37 deg C; Cont(PBS) 2.36
Procedure: as §1, §2

[5] = test system: chemokines, cytokines and growth factors in tracheal aspirate samples from COVID-19 patients; experiment: Immunological inflammatory mediators, 27-plex bead assay; parameters: species or system human; conditions: BromAc 125 and 250 mcg + 2% NAC, or NAC alone at 2%; 60 minutes, 37° C.
Procedure: In order to verify the effect of BromAc in the inflammatory mediators present in tracheal aspirate (TA) samples from COVID-19 patients. TA specimens were treated with 125 to 250 μg of Bromelain and 2% NAC (BromAc) using the MAD device as described previously. Treated and untreated TA specimens were incubated at 37° C. in 6 well plates for 1 hour. After that, TA specimen aliquots were initially cleared by centrifugation at 800×g for 10 min, at room temperature and TA supernatants were transferred to fresh 2 mL microtubes. Samples were diluted 1:10 and incubated with magnetic beads covered with monoclonal antibodies specific to several immunological mediators, such as: chemokines (CXCL8, CCL11, CCL3, CCL4, CCL2, and CXCL10), inflammatory cytokines (IL-1b, IL-6, TNF-α, IL-12, IFN-g, IL-15 and IL-17), regulatory cytokines (IL-1Ra, IL-9. IL-10) and growth factors (FGF-basic, PDGF, VEGF, G-CSF. GM-CSF, IL-2 and IL-7). Experiments were carried out according to the manufacturer's instructions using the Procarta Human Cytokine 27-plex Assay, (Invitrogen, CA, USA). The immunological mediators were measured in TA samples and the concentrations of each sample was determined according to standard curves run for each molecule tested using a fifth parameter logistic fit analysis. The results were expressed as pg/mL for all mediators tested. […]

`CC(=O)N[C@@H](CS)C(=O)O` [NAC, N-acetylcysteine] showed a D10 ([1]; NAC 8 mg/mL in saline) of 1.19 µm, a D50 ([1]; NAC 8 mg/mL in saline) of 3.26 μm and a D90 ([1]; NAC 8 mg/mL in saline) of 8.23c. For the same molecule, the D10 ([1]; NAC 60 mg/mL in saline) was 1.12 µm, the D50 ([1]; NAC 60 mg/mL in saline) was 2.87b μm and the D90 ([1]; NAC 60 mg/mL in saline) was 7.47 µm. For the same molecule, the “Sputum flow speed (€)” value [2] was 0.05 mL/s, the “detection in plasma (ELISA)” value [3] was “not detected” and the “Dynamic viscosity (¥)” value [4] was 1.640 cSt. For the same molecule, the “IL-9 level, compared to untreated” value [5] was “the same effect was observed”.
